Measured values published in the supplement of paper PMC10307832.

Tests used:
Test in all cases: relative viability (nuclei count vs DMSO), 5 days (fraction); higher = more cells survive
NCI-H1734 = test system: NCI-H1734
Method in brief: (§1)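 For relative viability, nuclei counts in treated wells were divided by those in vehicle wells. Lung cancer cell lines had been pin-tool dosed in 1536-well plates the day after seeding and cultured for 5 days, then fixed and stained in one step (final 0.05% Triton X-100, 1% formaldehyde, 1 ug/ml Hoechst) and imaged at 4×. Doses were one drug alone or a fixed anchor-drug dose plus five library-drug doses (not always all listed) in √10 steps, and values are duplicate-plate medians.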

A549 = test system: A549
Method in brief: as §1

IA-LM = test system: IA-LM
Method in brief: as §1

NCI-H2009 = test system: NCI-H2009
Method in brief: as §1

LK-2 = test system: LK-2
Method in brief: as §1

NCI-H1650 = test system: NCI-H1650
Method in brief: as §1

EBC-1 = test system: EBC-1
Method in brief: as §1

NCI-H1648 = test system: NCI-H1648
Method in brief: as §1

A-427 = test system: A-427
Method in brief: as §1

NCI-H1703 = test system: NCI-H1703
Method in brief: as §1

UMC-11 = test system: UMC-11
Method in brief: as §1

CAL-12T = test system: CAL-12T
Method in brief: as §1

NCI-H1299 = test system: NCI-H1299
Method in brief: as §1

Calu-6 = test system: Calu-6
Method in brief: as §1

## Cc1sc2c(c1C)C(c1ccc(Cl)cc1)=N[C@@H](CC(=O)OC(C)(C)C)c1nnc(C)n1-2 [JQ1] + O=C(c1cc(Cc2n[nH]c(=O)c3ccccc23)ccc1F)N1CCN(C(=O)C2CC2)CC1 [Olaparib] (partner 8 µM)
NCI-H1734; first compound 0.04 µM
  relative viability: 0.606
NCI-H1734; first compound 0.1265 µM
  relative viability: 0.556
NCI-H1734; first compound 0.4 µM
  relative viability: 0.563
NCI-H1734; first compound 1.265 µM
  relative viability: 0.47
NCI-H1734; first compound 4 µM
  relative viability: 0.349
A549; first compound 0.04 µM
  relative viability: 0.303
A549; first compound 0.1265 µM
  relative viability: 0.213
A549; first compound 0.4 µM
  relative viability: 0.255
A549; first compound 1.265 µM
  relative viability: 0.102
A549; first compound 4 µM
  relative viability: 0.045
IA-LM; first compound 0.04 µM
  relative viability: 0.739
IA-LM; first compound 0.1265 µM
  relative viability: 0.508
IA-LM; first compound 0.4 µM
  relative viability: 0.17
IA-LM; first compound 1.265 µM
  relative viability: 0.115
IA-LM; first compound 4 µM
  relative viability: 0.117
NCI-H2009; first compound 0.04 µM
  relative viability: 0.689
NCI-H2009; first compound 0.1265 µM
  relative viability: 0.548
NCI-H2009; first compound 0.4 µM
  relative viability: 0.545
NCI-H2009; first compound 1.265 µM
  relative viability: 0.198
NCI-H2009; first compound 4 µM
  relative viability: 0.152
LK-2; first compound 0.04 µM
  relative viability: 0.639
LK-2; first compound 0.1265 µM
  relative viability: 0.74
LK-2; first compound 0.4 µM
  relative viability: 0.409
LK-2; first compound 1.265 µM
  relative viability: 0.155
LK-2; first compound 4 µM
  relative viability: 0.15
NCI-H1650; first compound 0.04 µM
  relative viability: 0.725
NCI-H1650; first compound 0.1265 µM
  relative viability: 0.669
NCI-H1650; first compound 0.4 µM
  relative viability: 0.476
NCI-H1650; first compound 1.265 µM
  relative viability: 0.21
NCI-H1650; first compound 4 µM
  relative viability: 0.149
EBC-1; first compound 0.04 µM
  relative viability: 0.74
EBC-1; first compound 0.1265 µM
  relative viability: 0.473
EBC-1; first compound 0.4 µM
  relative viability: 0.312
EBC-1; first compound 1.265 µM
  relative viability: 0.093
EBC-1; first compound 4 µM
  relative viability: 0.113
NCI-H1648; first compound 0.04 µM
  relative viability: 0.66
NCI-H1648; first compound 0.1265 µM
  relative viability: 1.03
NCI-H1648; first compound 0.4 µM
  relative viability: 0.462
NCI-H1648; first compound 1.265 µM
  relative viability: 0.485
NCI-H1648; first compound 4 µM
  relative viability: 0.289
A-427; first compound 0.04 µM
  relative viability: 0.693
A-427; first compound 0.1265 µM
  relative viability: 0.72
A-427; first compound 0.4 µM
  relative viability: 0.83
A-427; first compound 1.265 µM
  relative viability: 0.709
A-427; first compound 4 µM
  relative viability: 0.418
NCI-H1703; first compound 0.04 µM
  relative viability: 0.458
NCI-H1703; first compound 0.4 µM
  relative viability: 0.498
NCI-H1703; first compound 1.265 µM
  relative viability: 0.236
NCI-H1703; first compound 4 µM
  relative viability: 0.234
UMC-11; first compound 0.04 µM
  relative viability: 0.359
UMC-11; first compound 0.1265 µM
  relative viability: 0.282
UMC-11; first compound 0.4 µM
  relative viability: 0.268
UMC-11; first compound 1.265 µM
  relative viability: 0.142
UMC-11; first compound 4 µM
  relative viability: 0.0941
CAL-12T; first compound 0.04 µM
  relative viability: 0.715
CAL-12T; first compound 0.1265 µM
  relative viability: 0.823
CAL-12T; first compound 0.4 µM
  relative viability: 0.595
CAL-12T; first compound 1.265 µM
  relative viability: 0.34
CAL-12T; first compound 4 µM
  relative viability: 0.272
NCI-H1299; first compound 0.04 µM
  relative viability: 0.931
NCI-H1299; first compound 0.1265 µM
  relative viability: 0.787
NCI-H1299; first compound 0.4 µM
  relative viability: 0.972
NCI-H1299; first compound 1.265 µM
  relative viability: 0.298
NCI-H1299; first compound 4 µM
  relative viability: 0.235
Calu-6; first compound 0.04 µM
  relative viability: 0.536
Calu-6; first compound 0.1265 µM
  relative viability: 0.408
Calu-6; first compound 0.4 µM
  relative viability: 0.511
Calu-6; first compound 1.265 µM
  relative viability: 0.251
Calu-6; first compound 4 µM
  relative viability: 0.249

## COc1cc2nccc(Oc3ccc(NC(=O)Nc4cc(C)on4)c(Cl)c3)c2cc1OC [Tivozanib] + NC(=O)Nc1cc(-c2cccc(F)c2)sc1C(=O)N[C@H]1CCCNC1 [AZD7762] (partner 0.2 µM)
NCI-H1734; first compound 0.005 µM
  relative viability: 0.515
NCI-H1734; first compound 0.01581 µM
  relative viability: 0.524
NCI-H1734; first compound 0.05 µM
  relative viability: 0.523
NCI-H1734; first compound 0.1581 µM
  relative viability: 0.408
NCI-H1734; first compound 0.5 µM
  relative viability: 0.451
LK-2; first compound 0.005 µM
  relative viability: 0.512
LK-2; first compound 0.01581 µM
  relative viability: 0.278
LK-2; first compound 0.05 µM
  relative viability: 0.494
LK-2; first compound 0.1581 µM
  relative viability: 0.252
LK-2; first compound 0.5 µM
  relative viability: 0.357
NCI-H1648; first compound 0.005 µM
  relative viability: 0.666
NCI-H1648; first compound 0.01581 µM
  relative viability: 0.708
NCI-H1648; first compound 0.05 µM
  relative viability: 0.693
NCI-H1648; first compound 0.1581 µM
  relative viability: 0.585
NCI-H1648; first compound 0.5 µM
  relative viability: 0.695
A-427; first compound 0.005 µM
  relative viability: 0.75
A-427; first compound 0.01581 µM
  relative viability: 0.795
A-427; first compound 0.05 µM
  relative viability: 0.728
A-427; first compound 0.1581 µM
  relative viability: 0.68
A-427; first compound 0.5 µM
  relative viability: 0.719
NCI-H1703; first compound 0.005 µM
  relative viability: 0.124
NCI-H1703; first compound 0.01581 µM
  relative viability: 0.112
NCI-H1703; first compound 0.05 µM
  relative viability: 0.139
NCI-H1703; first compound 0.1581 µM
  relative viability: 0.143
NCI-H1703; first compound 0.5 µM
  relative viability: 0.118
CAL-12T; first compound 0.005 µM
  relative viability: 0.483
CAL-12T; first compound 0.01581 µM
  relative viability: 0.584
CAL-12T; first compound 0.05 µM
  relative viability: 0.668
CAL-12T; first compound 0.1581 µM
  relative viability: 0.722
CAL-12T; first compound 0.5 µM
  relative viability: 0.71

## Cc1sc2c(c1C)C(c1ccc(Cl)cc1)=N[C@@H](CC(=O)OC(C)(C)C)c1nnc(C)n1-2 [JQ1] + NC(=O)Nc1cc(-c2cccc(F)c2)sc1C(=O)N[C@H]1CCCNC1 [AZD7762] (partner 0.2 µM)
NCI-H1734; first compound 0.04 µM
  relative viability: 0.544
NCI-H1734; first compound 0.1265 µM
  relative viability: 0.53
NCI-H1734; first compound 0.4 µM
  relative viability: 0.47
NCI-H1734; first compound 1.265 µM
  relative viability: 0.281
NCI-H1734; first compound 4 µM
  relative viability: 0.273
LK-2; first compound 0.04 µM
  relative viability: 0.464
LK-2; first compound 0.1265 µM
  relative viability: 0.388
LK-2; first compound 0.4 µM
  relative viability: 0.229
LK-2; first compound 1.265 µM
  relative viability: 0.101
LK-2; first compound 4 µM
  relative viability: 0.128
NCI-H1648; first compound 0.04 µM
  relative viability: 0.862
NCI-H1648; first compound 0.1265 µM
  relative viability: 0.906
NCI-H1648; first compound 0.4 µM
  relative viability: 0.579
NCI-H1648; first compound 1.265 µM
  relative viability: 0.376
NCI-H1648; first compound 4 µM
  relative viability: 0.388
A-427; first compound 0.04 µM
  relative viability: 0.749
A-427; first compound 0.1265 µM
  relative viability: 0.611
A-427; first compound 0.4 µM
  relative viability: 0.594
A-427; first compound 1.265 µM
  relative viability: 0.516
A-427; first compound 4 µM
  relative viability: 0.416
NCI-H1703; first compound 0.04 µM
  relative viability: 0.111
NCI-H1703; first compound 0.1265 µM
  relative viability: 0.13
NCI-H1703; first compound 0.4 µM
  relative viability: 0.155
NCI-H1703; first compound 1.265 µM
  relative viability: 0.108
NCI-H1703; first compound 4 µM
  relative viability: 0.118
CAL-12T; first compound 0.04 µM
  relative viability: 0.588
CAL-12T; first compound 0.1265 µM
  relative viability: 0.52
CAL-12T; first compound 0.4 µM
  relative viability: 0.466
CAL-12T; first compound 1.265 µM
  relative viability: 0.365
CAL-12T; first compound 4 µM
  relative viability: 0.317
